# Laboratory results taken from patent US20190127692A1, “Production Method For Hepatocyte Lineage Cells, Hepatocyte Lineage Cell Or Culture Product Obtained By The Production Method, And Hepatocyte Differentiation-Inducing Medium” (National University Corporation Chiba University, priority 2017, published 2019).
# Tests used:
# Type in all cases: cell-based, human
# AFP [1] = assay: AFP expression by real-time quantitative PCR (Example 4); settings: 1 mM in HSM, 7 days culture, control ReproFF
# Method: (§1) 201B7 cells, ReproFF, HSM, calcium lactate, and sodium lactate were prepared in the same manner as in Example 2.
# (§2) The 201B7 cells were seeded to a 6-well plate coated with Matrigel, and when 100% confluence had been reached, the medium was exchanged with 1 mM calcium lactate (Ca-lactate), 1 mM sodium lactate (Na-lactate), or 1 mM lactic acid (Lactate), followed by culture for 7 days. Control cells were cultured in ReproFF.
# (§3) RNA was extracted and analyzed for the expression levels of AFP and albumin by real-time quantitative PCR.
# albumin = assay: Albumin expression by real-time quantitative PCR (Example 4); settings: 1 mM in HSM, 7 days culture, control ReproFF
# Method: as §1, §2, §3
# 201B7 cells [2] = assay: Optical microscope observation 1: precipitates and cell survival after 7-day culture (Example 3)
# Method: In the above-mentioned Examples, precipitates were formed in culture dishes in some cases. The formation of the precipitates inhibits contact between cells and medium to adversely affect long-term survival. Therefore, conditions under which the precipitates were not formed were investigated.
# 201B7 cells, ReproFF, HSM, and calcium lactate were prepared in the same manner as in Example 2.
# 5×10^4 201B7 cells were seeded to a 96-well plate coated with Matrigel. The next day, to HSM, calcium lactate was added at 3 μM, 10 μM, 30 μM, 100 μM, 300 μM, 1 mM, 3 mM, 10 mM, 30 mM, or 100 mM, followed by culture for 7 days.
# 201B7 cells [3] = assay: Optical microscope observation 2: state of culture cells (Example 5); settings: 1 mM, 7 days culture
# Method: 201B7 cells, HSM, calcium lactate, sodium lactate, and lactic acid were prepared in the same manner as in Example 2.
# The 201B7 cells were seeded to a 6-well plate coated with Matrigel, and when 100% confluence had been reached, the medium was exchanged with 1 mM calcium lactate, 1 mM sodium lactate, or 1 mM lactic acid, followed by culture for 7 days.
# AFP [4] = assay: Immunostaining with anti-AFP antibody (Example 6); settings: HSM supplemented, 7 days culture
# Method: 201B7 cells, HSM, ReproFF, and calcium lactate were prepared in the same manner as in Example 2.
# The 201B7 cells were seeded to an 8-well chamber slide and cultured. After 100% confluence had been reached, 1 mM calcium lactate was added to HSM, followed by culture for 7 days. As a control, the cells were cultured in ReproFF for 7 days.
# The cells were fixed with 4% paraformaldehyde, and washed with phosphate buffered saline (PBS). The cells were incubated at 4° C. for 30 minutes in 100% methanol having added thereto 0.3% hydrogen peroxide solution to inactivate intrinsic peroxidase. The cells were washed three times with PBS. The cells were incubated at 4° C. for 30 minutes in PBS supplemented with 2% fetal bovine serum (wash buffer).
# A mouse anti-human alpha-fetoprotein (AFP) antibody (manufactured by Takara Bio Inc., product code: M225) was diluted 1,000-fold with the wash buffer and added, followed by incubation at 4° C. overnight. The resultant was washed three times with PBS. An anti-mouse IgG antibody (manufactured by GE Healthcare) labeled with Horse-radish peroxidase was diluted 1,000-fold with the wash buffer, followed by incubation at 4° C. for 3 hours. The resultant was washed three times with PBS. Color development was performed with 3,3-diaminobenzidine (DAKO, K3467), and nuclei were stained with hematoxylin, followed by mounting.
# [5] = in HSM, 7 days culture, optical microscope
SMILES,expression of AFP as compared to the undifferentiated state (AFP [1]),expression of albumin as compared to the undifferentiated state (albumin),"cell survival (201B7 cells [2]; 1 mM in HSM, 7 days culture)",concentration at which precipitates were found (201B7 cells [2]; [5]),concentration at which precipitates were not found (201B7 cells [2]; [5]),state of cells as compared to cells cultured with calcium lactate (201B7 cells [3]),"optical microscope observation, FIG. 3A (201B7 cells [2]; 3 mM, 7 days culture)",AFP expression (immunostaining) as compared to cells cultured in ReproFF (AFP [4]),"cell survival in HSM supplemented with lactic acid (general remark) (201B7 cells [2]; iPS cells, 7 days)"
CC(O)C(=O)[O-].CC(O)C(=O)[O-].[Ca+2] (stereo not drawn) [calcium lactate],upregulated,upregulated,survived,≥ 3 mM,≤ 1 mM,–,–,–,–
CC(O)C(=O)[O-].[Na+] (stereo not drawn) [sodium lactate],upregulated,upregulated,–,–,–,collapsing tendency,precipitates,–,–
CC(O)C(=O)O (stereo not drawn) [lactic acid],–,–,–,–,–,collapsing tendency,–,upregulated,survived even after 7 days
